Measurements published in ChEMBL document CHEMBL1914363, “Identification of a naturally occurring quinazolin-4(3H)-one firefly luciferase inhibitor” (J Nat Prod, 2011).
Activity calls are given as the source filed them. The calls are words filed in the database; no cut-off is given here.

What was measured:
[1] = target: T1, Luciferin 4-monooxygenase (Luciola lateralis) (UniProt Q01158); experiment: Inhibition of firefly luciferase by ATPlite assay in presence of AMPK; conditions: Aquatica lateralis
T1 sequence (whole entry): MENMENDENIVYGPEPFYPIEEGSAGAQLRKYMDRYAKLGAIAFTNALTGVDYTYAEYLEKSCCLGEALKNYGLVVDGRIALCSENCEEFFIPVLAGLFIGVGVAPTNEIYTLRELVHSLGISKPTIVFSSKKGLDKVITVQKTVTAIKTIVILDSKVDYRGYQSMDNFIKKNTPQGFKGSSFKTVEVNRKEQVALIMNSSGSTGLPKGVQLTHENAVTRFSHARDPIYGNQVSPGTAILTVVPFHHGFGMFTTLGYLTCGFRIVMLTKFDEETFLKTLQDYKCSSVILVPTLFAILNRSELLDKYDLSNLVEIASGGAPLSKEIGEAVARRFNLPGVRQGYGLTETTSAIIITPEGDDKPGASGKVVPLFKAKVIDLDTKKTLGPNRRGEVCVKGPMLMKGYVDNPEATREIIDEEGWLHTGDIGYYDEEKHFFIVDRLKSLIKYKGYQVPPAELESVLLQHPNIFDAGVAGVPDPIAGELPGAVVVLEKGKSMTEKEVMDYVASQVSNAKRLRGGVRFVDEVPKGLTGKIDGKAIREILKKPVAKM

[2] = target: T2, Luciferin 4-monooxygenase (Luciola lateralis, UniProt Q01158); experiment: Inhibition of firefly luciferase by ATPlite assay in absence of AMPK; set-up: species or system Aquatica lateralis
T2 sequence (Q01158 whole entry): T1 sequence (whole entry)

CNc1ccc(-c2nc3ccccc3c(=O)[nH]2)cc1
inhibition [1]: Active | EC50 [2]: 730 nM
